Source: patent publication US20100190683A1, “SOLIDIFIED DETERGENT COMPOSITIONS AND METHOD FOR PRODUCING THE SAME” (priority 2007, published 2010)

How the values were obtained:
[1] = Solubility to tap water and behavior after dissolution of lyophilized samples; type: physicochemical; settings: lyophilization 15 hours
Description: On the other hand, such a phenomenon was not seen when ethanol was added (Table 1). Therefore, in the conditions like the ethanol addition groups, the sample was prepared by using t-butyl alcohol in substitution for ethanol, and lyophilized for 15 hours. As a result, solidification (powderization) by lyophilization was possible in both samples. In addition, the solubility to tap water was good, and after dissolution, gelation or the like has not also happened (Table 2). Furthermore, ethanol or t-butyl alcohol was not added, and in the system which only HD was added, the solubility to tap water was good, and after dissolution, gelation or the like had not also happened (Table 2). In the system which as substitution for HD, a nonionic surfactant, polyoxyethylene sorbitan monolaurate (hereinafter referred to as PO) was added, this system was also examined, and then a similar good result was obtained.

[2] = Solubility to tap water of the substance obtained by azeotrope at 70° C.; type: physicochemical; settings: surfactant HD, tap water of 5 mL
Description: In the undiluted solution of octadecyl dimethyl (3-trimethoxysilyl propyl) ammonium chloride (hereinafter referred to as QAS) which is an antimicrobial detergent, hexadecyl trimethyl ammonium (hereinafter referred to as HD), which was a cationic surfactant, was added, and for the azeotrope, a sample solution with the addition of acetone or ethanol was prepared, azeotrope was performed at 70° C. […] In the resultant gelated substance, tap water of 5 mL was added, but gelation advanced in many samples highly and solidification was occurred within several minutes to 1 hour, and those were not suitable for practical use (Table 1).

[3] = surfactant HD, solvent t-Butyl alcohol
[4] = surfactant HD, solvent: nothing
[5] = surfactant PO, solvent: nothing

CCCCCCCCCCCCCCCCCC[N+](C)(C)CCC[Si](OC)(OC)OC.[Cl-] [QAS, octadecyl dimethyl (3-trimethoxysilyl propyl) ammonium chloride]
No problem: Behavior after dissolution ([1]; surfactant HD, solvent Ethanol) | Solubility to tap water ([1]; surfactant HD, solvent Ethanol) | Behavior after dissolution [1, 3] | Solubility to tap water [1, 3] | Behavior after dissolution [1, 4] | Solubility to tap water [1, 4] | Behavior after dissolution [1, 5] | Solubility to tap water [1, 5]
Gel→Consolidate: Solubility to tap water ([2]; solvent addition Acetone) | Solubility to tap water ([2]; solvent addition: nothing)
